Test results as given in ChEMBL document CHEMBL1275523 (Antimicrob Agents Chemother, 2008).

Legend:
Assay type in all cases: cell-based
[1] = molecular target: T1, Sialidase-3 (Homo sapiens, UniProt Q9UQ49); assay: Inhibition of human NEU3 expressed in HEK293 cells by fluorometric high-performance liquid chromatography using ganglioside GM3 substrate
T1 sequence (Q9UQ49 whole entry): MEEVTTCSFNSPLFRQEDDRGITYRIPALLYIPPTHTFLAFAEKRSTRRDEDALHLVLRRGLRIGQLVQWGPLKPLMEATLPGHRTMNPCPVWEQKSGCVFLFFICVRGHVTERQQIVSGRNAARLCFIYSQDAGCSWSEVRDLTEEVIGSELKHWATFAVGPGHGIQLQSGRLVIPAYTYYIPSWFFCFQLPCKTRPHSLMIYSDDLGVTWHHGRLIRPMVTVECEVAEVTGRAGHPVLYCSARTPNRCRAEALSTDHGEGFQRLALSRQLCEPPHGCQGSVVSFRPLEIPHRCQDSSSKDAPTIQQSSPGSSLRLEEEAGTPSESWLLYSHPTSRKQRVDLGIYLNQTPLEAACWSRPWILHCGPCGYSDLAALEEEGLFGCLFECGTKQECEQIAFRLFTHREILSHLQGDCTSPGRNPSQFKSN

[2] = molecular target: Sialidase-1 (Homo sapiens, UniProt Q99519); assay: Inhibition of human NEU1 expressed in HEK293 cells by fluorometric high-performance liquid chromatography using 4MU-NeuAc substrate
[3] = molecular target: T2, Sialidase-4 (Homo sapiens, UniProt Q8WWR8); assay: Inhibition of human NEU4 expressed in HEK293 cells by fluorometric high-performance liquid chromatography using 4MU-NeuAc substrate
T2 sequence (Q8WWR8 whole entry): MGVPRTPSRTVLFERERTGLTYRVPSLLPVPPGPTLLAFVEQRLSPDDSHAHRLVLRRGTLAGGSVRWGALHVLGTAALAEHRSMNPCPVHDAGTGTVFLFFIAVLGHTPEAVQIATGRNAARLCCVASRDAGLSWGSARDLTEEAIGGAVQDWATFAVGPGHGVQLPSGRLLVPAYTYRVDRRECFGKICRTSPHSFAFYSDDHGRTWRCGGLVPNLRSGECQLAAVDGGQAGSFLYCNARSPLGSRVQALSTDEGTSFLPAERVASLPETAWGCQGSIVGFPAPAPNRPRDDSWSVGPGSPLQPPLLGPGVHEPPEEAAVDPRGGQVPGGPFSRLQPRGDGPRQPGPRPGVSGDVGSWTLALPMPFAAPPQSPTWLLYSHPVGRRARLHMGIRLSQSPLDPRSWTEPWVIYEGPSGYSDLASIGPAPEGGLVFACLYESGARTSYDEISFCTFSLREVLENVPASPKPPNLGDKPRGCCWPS

[4] = molecular target: T1, Sialidase-3; assay: Inhibition of human NEU3 expressed in HEK293 cells by fluorometric high-performance liquid chromatography using 4MU-NeuAc substrate

| IC50 [1] [µM] | IC50 [2] [µM] | IC50 [3] [µM] | IC50 [4] [µM] | SMILES |
| --- | --- | --- | --- | --- |
| 70.3 | – | – | – | CC(=O)N[C@H]1[C@H]([C@H](O)[C@H](O)CO)OC(C(=O)O)=C[C@@H]1O [NEU5AC2EN] |
| – | > 10000 | > 10000 | > 10000 | CCOC(=O)C1=C[C@@H](OC(CC)CC)[C@H](NC(C)=O)[C@@H](N)C1 [OSELTAMIVIR] |
| – | 2710 | – | – | CC(=O)N[C@H]1[C@H]([C@H](O)[C@H](O)CO)OC(C(=O)O)=C[C@@H]1N=C(N)N [ZANAMIVIR] |
